This note sets out measurements from patent US6225306A, “Biphenyl derivatives and drug composition” (Wakamoto Pharmaceutical Co., Ltd., priority 1997, dated 2001).

One assay has as its system Normal Conscious Rat. Nature of the assay: Aquaretic Effects in Normal Conscious Rat (urine volume). It is filed as in vivo, rat (Sprague-Dawley, male). As for the experimental part: Aquaretic Effects in Normal Conscious Rat
Studies were performed with Sprague-Dawley male SPF rats (body weight: 240 to 320 g; 8-week-old). In this experiment, each group consisted of not less than 4 animals and rats were fasted over 16 to 20 hours. The animals were acclimatized in metabolic cages for one hour, then each compound to be tested was dissolved in 100% N,N-dimethylformamide or suspended in 5% gum arabic solution and administered to these animals intravenously (iv.) in a dose of 3 mg/kg or orally (p.o.) in a dose of 30 mg/kg. Immediately after the test compound or vehicle were orally administered, saline (25 ml/kg) was given orally. Spontaneous voided urines were collected for 4 hours after the administration of the compound and the amount of the urine were determined. In this case, the control group consisted of animals to which only 5% gum arabic was orally administered.
In addition, known compounds of Comparative Examples 2 and Comparative Examples 3 and 4 represented by the following formulas were used as control compounds.

Another assay has as its target Vasopressin V2 Receptor (Rattus norvegicus, UniProt Q00788). Nature of the assay: biochemical. Format: binding, rat (Sprague-Dawley, female; kidney crude membrane). Conditions: for inhibition at 0.1 µM: 1 h, read-out: Binding Rate of Vasopressin V2 Receptor.
Another assay has as its target Vasopressin V1 Receptor (Rattus norvegicus, UniProt P30560). Nature of the assay: biochemical. Format: binding, rat (Sprague-Dawley, female; liver crude membrane). Conditions: for inhibition at 0.1 µM: 1 h, read-out: Binding Rate of Vasopressin V1 Receptor.
Where [1] appears, read: 10^-7 M, inhibition rate at this concentration.

Structures can show the parent of a compound that is named as a salt. Where two headings read alike, the source gives them in different places.

Chain of Vasopressin V1 Receptor (P30560 whole entry): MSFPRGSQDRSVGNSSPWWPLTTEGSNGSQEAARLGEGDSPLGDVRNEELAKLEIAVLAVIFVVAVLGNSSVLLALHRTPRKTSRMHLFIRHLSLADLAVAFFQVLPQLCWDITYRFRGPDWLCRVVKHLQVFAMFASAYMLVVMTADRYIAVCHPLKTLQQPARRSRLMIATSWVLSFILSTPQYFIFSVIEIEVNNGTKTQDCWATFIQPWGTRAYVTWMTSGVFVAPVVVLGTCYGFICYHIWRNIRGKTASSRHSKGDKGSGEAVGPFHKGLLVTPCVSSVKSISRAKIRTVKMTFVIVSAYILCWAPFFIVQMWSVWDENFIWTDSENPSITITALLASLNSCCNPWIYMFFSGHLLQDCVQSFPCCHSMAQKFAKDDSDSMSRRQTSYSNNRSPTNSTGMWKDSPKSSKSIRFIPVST
Chain of Vasopressin V2 Receptor (Q00788 whole entry): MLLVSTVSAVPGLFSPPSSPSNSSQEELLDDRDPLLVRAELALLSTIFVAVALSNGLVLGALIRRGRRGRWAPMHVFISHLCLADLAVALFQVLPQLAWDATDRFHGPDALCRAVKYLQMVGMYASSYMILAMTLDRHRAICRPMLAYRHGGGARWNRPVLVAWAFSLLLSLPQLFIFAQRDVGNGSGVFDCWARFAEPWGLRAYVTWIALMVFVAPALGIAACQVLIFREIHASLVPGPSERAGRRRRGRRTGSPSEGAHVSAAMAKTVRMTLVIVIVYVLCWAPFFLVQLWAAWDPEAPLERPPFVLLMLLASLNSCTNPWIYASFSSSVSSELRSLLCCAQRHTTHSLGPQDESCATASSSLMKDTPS
Description for Vasopressin V1 Receptor: The livers excised from Sprague-Dawley female rats were cut into small pieces, and were homogenized in 50 mM Tris-HCl, pH 7.4 hereunder referred to as "buffer"). The homogenate was centrifuged at 50000×g, at 4° C. for 20 minutes. The pellet was added the buffer in an amount of 10 times the volume of the pellet, the mixture was recentrifuged by the same method as described above to wash the residue. The buffer was further added to the resulting pellet so that the protein content thereof was adjusted to 10 mg/ml to thus give a crude membrane fraction of rat liver. The crude membrane fraction of rat liver was used in the following test. More specifically, 5000 μg of the crude liver membrane was incubated with [^3 H]-Arg-vasopressin V-1 antagonist ([^3 H) vasopressin V1 antagonist: 2 nM) and various concentration (3×10^-12 to 10^-6) of the test compounds in a 1000 μL of buffer containing 10 mM magnesium chloride, 10 mM potassium chloride and 0.1% bovine serum albumin at 25° C. for 60 minutes. Thereafter the incubation mixture was rapidly filtered by vacuum using a cell harvester. The filters were washed with buffer to remove free ligands and excess buffer, and to thus trap labeled ligand linked with the receptor on the filter paper. The filter paper was sufficiently dried and mixed with a liquid scintillator, and the amount of the [^3 H] vasopressin V1 antagonist bonded to the membrane was determined using a liquid scintillation counter. The inhibition rate at each concentration was calculated according to the following equation:
Inhibition Rate (%)=100-[(B-N)/(B0 -N)]×100
Wherein B represents the amount of the [^3 H] vasopressin V1 antagonist bonded to the membrane in the presence of known amounts of the compound to be tested and the [^3 CH] vasopressin V1 antagonist;
B0 represents the amount of the [^3 H] vasopressin V1 antagonist bonded to the membrane in the absence of the compound to be tested;
N represents the amount of the [^3 H] vasopressin V1 antagonist bonded to the membrane in the presence of an excess of vasopressin (10^-6 M).
The IC50 value (the concentration required to cause 50% inhibition of the specific binding of [^3 H]-V1 antagonist) was determined. […] On the other hand, for the compounds which were investigated only one concentration (10^-7 M), the inhibition rate at that concentration was defined to be the binding rate.

With `O=C(Nc1ccc(C(=O)N2C[C@@H]3C[C@H](O)CN3C(=O)c3ccccc32)cc1)c1ccccc1-c1ccccc1` [Example 29, (2S, 11aS)-2-Hydroxy-10-[4-[(2-Phenylbenzoyl) Amino]Benzoyl]-1,2,3,10,11,11a-Hexahydro-5H-Pyrrolo[2,1-c][1,4]Benzodiazepin-5-One], the “Amount of Urine Volume” value with Normal Conscious Rat (3 mg/kg, i.v.) was 50.4 ml/kg/0-4 hr; with Normal Conscious Rat (30 mg/kg, p.o.), 14.0 ml/kg/0-4 hr. For the same compound, the inhibition at 0.1 µM was determined as 99.5% on Vasopressin V2 Receptor (setting [1]) and 18.9% on Vasopressin V1 Receptor (setting [1]).

In the case of `O=C(Nc1ccc(C(=O)N2C[C@@H]3CCCN3C(=S)c3ccccc32)cc1)c1ccccc1-c1ccccc1` [Example 37, (11aS)-10-[4-[(2-Phenylbenzoyl) Amino]Benzoyl]-1,2,3,10,11, 11a-Hexahydro-5H-Pyrrolo[2,1-c][1,4]Benzodiazepin-5-Thione], the “Amount of Urine Volume” value in the assay with Normal Conscious Rat (3 mg/kg, i.v.) was determined as 40.7 ml/kg/0-4 hr; in the assay with Normal Conscious Rat (30 mg/kg, p.o.), 21.1 ml/kg/0-4 hr. Moreover, the inhibition at 0.1 µM was 100% on Vasopressin V2 Receptor (setting [1]) and 2.8% at Vasopressin V1 Receptor (setting [1]).

With `Cc1ccc(-c2ccccc2C(=O)Nc2ccc(C(=O)N3C[C@@H]4CCCN4C(=S)c4ccccc43)cc2)cc1` [Example 38, (11aS)-10-[4-[[2-(4-Tolyl) Benzoyl]Amino]Benzoyl]-1,2,3,10,11, 11a-Hexahydro-5H-Pyrrolo[2,1-c][1,4]Benzodiazepin-5-Thione], the “Amount of Urine Volume” value is reported as 60.0 ml/kg/0-4 hr in the assay on Normal Conscious Rat (3 mg/kg, i.v.) and 66.6 ml/kg/0-4 hr with Normal Conscious Rat (30 mg/kg, p.o.). Further, the inhibition at 0.1 µM came to 100% at Vasopressin V2 Receptor (setting [1]) and 4.7% on Vasopressin V1 Receptor (setting [1]).

On to `O=C(Nc1ccc(C(=O)N2C[C@@H]3CCCN3Cc3ccccc32)cc1)c1ccccc1-c1ccccc1` [Example 41, (11aS)-10-[4-[(2-Phenylbenzoyl) Amino]Benzoyl]-1,2,3,10,11, 11a-Hexahydro-5H-Pyrrolo[12,1-c][1,4]Benzodiazepine Hydrochloride], for which the “Amount of Urine Volume” value was 29.6 ml/kg/0-4 hr in the assay on Normal Conscious Rat (3 mg/kg, i.v.) and 73.8 ml/kg/0-4 hr in the assay on Normal Conscious Rat (30 mg/kg, p.o.). Besides, the inhibition at 0.1 µM on Vasopressin V2 Receptor (setting [1]) is 92%; on Vasopressin V1 Receptor (setting [1]) it was 6.6%.

As for `Cl.O=C(Nc1ccc(C(=O)N2C[C@H]3CCCN3Cc3ccccc32)cc1)c1ccccc1-c1ccccc1` [Example 43, (11aR)-10-[4-[(2-Phenylbenzoyl) Amino]Benzoyl]-1,2,3,10,11, 11a-Hexahydro-5H-Pyrrolo[2,1-c][1,4]Benzodiazepine Hydrochloride], the “Amount of Urine Volume” value with Normal Conscious Rat (3 mg/kg, i.v.) is recorded as 77.5 ml/kg/0-4 hr; in the assay with Normal Conscious Rat (30 mg/kg, p.o.), 121.6 ml/kg/0-4 hr. The values for the inhibition at 0.1 µM on Vasopressin V2 Receptor and on Vasopressin V1 Receptor were 100% and 61.6%, respectively.

Regarding `Cc1ccc(-c2ccccc2C(=O)Nc2ccc(C(=O)N3C[C@H]4CCCN4Cc4ccccc43)cc2)cc1` [Example 44, (11aR)-10-[4-[[2-(4-Tolyl) Benzoyl]Amino]Benzoyl]-1,2,3,10,11, 11-Hexahydro-5H-Pyrrolo[2,1-c][1,4]Benzodiazepine Hydrochloride], the “Amount of Urine Volume” value is reported as 73.0 ml/kg/0-4 hr with Normal Conscious Rat (3 mg/kg, i.v.) and 92.8 ml/kg/0-4 hr in the assay with Normal Conscious Rat (30 mg/kg, p.o.). The inhibition at 0.1 µM came to 96.7% at Vasopressin V2 Receptor (setting [1]) and 48.2% at Vasopressin V1 Receptor (setting [1]).

By IC50 is commonly meant the midpoint of a concentration-inhibition curve. With `Cl.O=C(Nc1ccc(C(=O)N2C[C@H]3C[C@H](O)CN3Cc3ccccc32)cc1)c1ccccc1-c1ccccc1` [Example 47, (2S, 11aR)-2-Hydroxy-10-[4-[(2-Phenylbenzoyl) Amino]Benzoyl]-1,2,3,10,11,11a-Hexahydro-5H-Pyrrolo[2,1-c][1,4]Benzodiazepine Hydrochloride], the “Amount of Urine Volume” value stood at 79.5 ml/kg/0-4 hr in the assay with Normal Conscious Rat (3 mg/kg, i.v.) and 109.6 ml/kg/0-4 hr in the assay with Normal Conscious Rat (30 mg/kg, p.o.). Further, the inhibition at 0.1 µM on Vasopressin V2 Receptor is 91.9%; on Vasopressin V1 Receptor, 59.8%. For the same compound, the IC50 was 0.77 nM at Vasopressin V2 Receptor ([3H] vasopressin V2 antagonist 2 nM, 25° C., 60 minutes, read-out: Affinity for Vasopressin V2 Receptor, IC50) and 62 nM at Vasopressin V1 Receptor ([3H] vasopressin V1 antagonist 2 nM, 25° C., 60 minutes, read-out: Affinity for Vasopressin V1 Receptor, IC50).
